Assay results reported in patent publication US11382872B2, “LSD1 inhibitors as skeletal muscle hypertrophy inducers” (CYTOO, priority 2016, dated 2022).
pEC50: −log10 of the molar value. Structures can show the parent of a compound that is named as a salt. Where two headings read alike, the source gives them in different places.

Tests used:
Human primary myoblasts [1] = assay: Hypertrophy assay (MyoScreen human myotube model): primary screening, retest, dose response; assay type: cell-based
[2] = system: Myotubes from the healthy donor 3; assay: Atrophy Rescue assay (MyoScreen) with atrophy inducers; assay type: cell-based, Human; set-up: key: +++: total rescue; ++: partial rescue; +: low rescue; settings: tranylcypromine 1 μM; for atrophy rescue, IL-1: inducer IL-1β 25 ng/mL; for atrophy rescue, TGF-β: inducer TGF-β 0.5 ng/mL; for atrophy rescue, TNF-alpha: inducer TNF-α 2 ng/mL; for atrophy rescue, dexamethasone: inducer dexamethasone 100 μM; for atrophy rescue, Myostatin: inducer myostatin 150 ng/mL
Method: (§1) Hypertrophy and Atrophy Rescue assays were performed using an in vitro fully automated human myotube model called MyoScreen™ (Cytoo, France). This model relies on a tight control of the microenvironment that guides the differentiation of human primary myoblasts. Myotubes formed on MyoScreen™ micropatterns present a high level of maturation together with a highly standardized morphology.
(§2) Human primary myoblasts from donors were seeded in MyoScreen™ micropatterned 96-well plates (Cytoo, France), let them adhere for 24 h in growth medium, then run the differentiation in a low horse serum medium for at least 5 days.
(§3) At Day 0, MyoScreen™ plates (Cytoo, France) containing micropatterns were pre-filled with 200 μl/well of growth medium and stored in the incubator at 37° C. Human primary myoblasts were detached from the flasks, count, and seeded into the plates with 15 000 cells per well in 100 μl of growth medium.
(§4) At Day 1, the growth medium was changed for a differentiation medium, 300 μ/well (DMEM with 0.1% horse serum) in which myoblasts started differentiating and forming myotubes.
(§5) At Day 2, the differentiation medium was changed. Then candidate compounds were diluted with differentiation medium and transferred into the plate. The final concentration of DMSO should be not higher than 0.1%. At least 6 wells were treated with the vehicle as a basal control, and 6 wells were treated with IGF-1 at 100 ng/ml as positive hypertrophy control.
For Atrophy Rescue assay, one hour after candidate compound addition, atrophy inducers were added at the following final concentration: 150 ng/mL of myostatin, 25 ng/mL of IL-1β, 2 ng/mL of TNF-α, 0.5 ng/mL of TGF-β and 100 μM of dexamethasone.
(§6) At Day 6, cells were fixed with formalin 5% for 30 min at room temperature, then permeabilized with Triton X-100 at 0.1% in PBS for 15 min, and blocked with PBS+BSA 1% for 20 minutes. Myotubes were incubated with first antibody against Troponin T in blocking buffer for 1 h30, washed three times with PBS, incubated with secondary antibody and Hoescht ( 1/10000) for 1 h30, and washed three times with PBS.
Atrophy Rescue assays were performed in triplicate in the presence of atrophy inducers, i.e. TNF-α, IL-1β, Myostatin, TGF-β and dexamethasone, and at 1 μM tranylcypromine.
Atrophy rescue assays was performed for tranylcypromine. Myotubes from the healthy donor 3 were atrophied using different inducers: TNF-α, IL-1β, Myostatin, TGF-β and dexamethasone. The ability of tranylcypromine to block the atrophy induced by these different atrophy inducers was determined.

Human primary myoblasts [3] = assay: Hypertrophy assay (MyoScreen human myotube model): primary screening, retest, dose response; assay type: cell-based; remark: listed apart in the source
Method: Healthy donor primary skeletal cells (Donor 1 and Donor 3) were Clonetics™ Human Skeletal Muscle Myoblasts (HSMM).
as §1, §2, §3, §4, §5, §6
Images were acquired at 10× magnification with an Operetta High Content Imaging System. Image processing and analysis were performed with dedicated algorithms developed on the Acapella High Content Imaging Software (Perkin Elmer) by CYTOO. Eleven fields per well were acquired.
First, segmentation of myotubes and nuclei were done using respectively the Troponin T staining intensity and the Hoechst staining. […] The threshold of segmentation was set-up in order to avoid detecting the background noise and eliminate aberrant small myotube structures.
Then, an image clean-up step was performed on the Troponin T images in order to remove myotubes that touch the border of the image. The final valid myotubes were used to extract myotube morphology parameters including the myotube width and area, and the number of nuclei per myotube.
Nuclei Count, Fusion Index, Mean myotube Area and Number of nuclei per myotube have been validated as relevant and sensitive readouts of myotube differentiation as well as atrophic and hypertrophic induction.
A primary screening was run to identify hypertrophy compounds that increase the myotube differentiation and size. Candidate compounds were tested at 10 μM in monoplicate on Donor 3 cells.
A retest was run, by cherry picking (same compound batch as primary screening): each hit was tested in the same conditions as in the Primary Screening (Donor 3, 10 μM) in six well replicates.
Dose response assays were performed on two healthy donors (Donors 3 and 1): 8 doses of candidate compounds between 33 μM and 0.015 μM, 2 well replicates per dose.

MyoScreen myotubes = assay: Acetylcholine Receptor (AchR) Clustering Assay (MyoScreen); assay type: cell-based, Human; settings: after 7 days of treatment
Method: The MyoScreen™ protocol was performed as described in the Hypertrophy and Atrophy rescue assay in example 1 but was stopped at Day 9 instead of Day 6. At the end of the assay, AchR were immunostained using a specific antibody in addition to Troponin T and nuclei. Images were acquired at ×20 with an Operetta High Content Imaging System from Perkin Elmer. Image processing and analyses were performed with a dedicated algorithm developed on the Acapella High Content Imaging Software (Perkin Elmer). Specific readouts were calculated in each well: nuclei count and myotube fusion index, number of AchR, AchR mean area, AchR total area normalized by the myotube total area.
Remarkably, when labeled with a specific anti-AChR antibody, MyoScreen myotubes at 6 days post-differentiation display AChR clusters punctuated along the sarcolemma membrane in the middle of the myotube fiber and in distinct regions at the ends of myotubes. To develop an automated AChR cluster assay, an AChR detection routine was developed that was sensitive and robust enough to analyze aggregate number and size clusters in images using the Operetta/Acapella system (see Materials and Methods).

[4] = Donor 3, second dose response assay, lower concentrations
[5] = Donor 1, first dose response assay (0.015-33 μM)
[6] = Donor 3, first dose response assay (0.015-33 μM)
[7] = Homo sapiens, Myoblast, Donor 3, second dose response assay
[8] = Donor 5, Example 2 dose response
[9] = Donor 7, compounds at 1 μM (IGF-1 positive control)
[10] = Donor 3, Example 2 dose response

Compound: N[C@H]1C[C@@H]1c1ccccc1 (relative stereo) [Tranylcypromine, trans-2-phenylcyclopropan-1-amine]
- % Activity (Human primary myoblasts [1]; [4]): 135%
- pEC50 (Human primary myoblasts [1]; Homo sapiens, Myoblast, Donor 1, first dose response assay): > 6.52
- activity at 10 µM (Human primary myoblasts [1]; Homo sapiens, Myoblast, Donor 3, compounds 10 μM, monoplicate (IGF-1 control 100 ng/ml), Myotube fusion index (compound)*100/basal control, read-out: Primary screening (% Activity)): 176%
- activity at 10 µM (Human primary myoblasts [1]; Homo sapiens, Myoblast, Donor 3, compounds 10 μM, six well replicates (IGF-1 control 100 ng/ml), Myotube fusion index (compound)*100/basal control, read-out: Retest (% Activity)): 136%
- pEC50 (Human primary myoblasts [1]; Homo sapiens, Myoblast, Donor 3, first dose response assay): > 7.52
- increase in the fusion index or/and myotube area readouts (Human primary myoblasts [1]; primary screening and retest, Donor 3, 10 μM): > 30%
- atrophy rescue, IL-1 [2]: +++
- atrophy rescue, TGF-β [2]: +
- atrophy rescue, TNF-alpha [2]: +
- atrophy rescue, dexamethasone [2]: ++
- atrophy rescue, Myostatin [2]: +++
- % Activity (Human primary myoblasts [3]; [5]): 138%
- % Activity (Human primary myoblasts [3]; [6]): 127%
- pEC50 (Human primary myoblasts [3]; [7]): 7.30

Compound: Cl.Cl.NNCCc1ccc(NC(=O)CCCc2ccccc2)cc1 [Bizine]
- % Activity (Human primary myoblasts [1]; [8]): 119%
- pEC50 (Human primary myoblasts [1]; [8]): 7.06
- % Activity (Human primary myoblasts [1]; [9]): 116% at 1 μM
- % Activity (Human primary myoblasts [3]; [10]): 120%
- pEC50 (Human primary myoblasts [3]; [10]): > 6.46

Compound: c1ccc(C2C[C@H]2NC2CCNCC2)cc1 (stereo partly drawn) [GSK LSD1]
- % Activity (Human primary myoblasts [1]; [4]): 145%
- % Activity (Human primary myoblasts [1]; [8]): 146%
- pEC50 (Human primary myoblasts [1]; Homo sapiens, Myoblast, Donor 5, Example 2 dose response): 10.92
- activity at 1 µM (Human primary myoblasts [1]; Homo sapiens, Myoblast, Donor 7, compounds at 1 μM (IGF-1 positive control)): 120%
- activity at 1 µM (Human primary myoblasts [1]; Homo sapiens, Myoblast, Donor C1, compound at 1 μM (IGF-1 positive control)): 154%
- activity at 1 µM (Human primary myoblasts [1]; Homo sapiens, Myoblast, Donor C13, compound at 1 μM (IGF-1 positive control)): 123%
- increase of AchR cluster total area (normalized by total myotube area) (MyoScreen myotubes; Donor 3): 50%
- increase of AchR cluster total area (normalized by total myotube area) (MyoScreen myotubes; Donor 5): 260%
- pEC50 (Human primary myoblasts [3]; [7]): 10.00

Compound: CN1CCN(C(=O)CN[C@H]2C[C@@H]2c2ccc(OCc3ccccc3)cc2)CC1 [RN 1 dihydrochloride]
- % Activity (Human primary myoblasts [1]; [4]): 135%
- pEC50 (Human primary myoblasts [3]; [7]): 10.00

Compound: IGF-1: insulin-like growth factor I, positive hypertrophy control at 100 ng/ml
- Retest (% Activity) (Human primary myoblasts [1]; Donor 3, compounds 10 μM, six well replicates (IGF-1 control 100 ng/ml), Myotube fusion index (compound)*100/basal control): 190%
- % Activity (Human primary myoblasts [1]; [4]): 150%
- % Activity (Human primary myoblasts [1]; [8]): 145%
- % Activity (Human primary myoblasts [1]; [9]): 119%
- % Activity (Human primary myoblasts [1]; Donor C1, compound at 1 μM (IGF-1 positive control)): 124%
- % Activity (Human primary myoblasts [1]; Donor C13, compound at 1 μM (IGF-1 positive control)): 141%
- atrophy rescue, IL-1 [2]: +++
- atrophy rescue, TGF-β [2]: ++
- atrophy rescue, TNF-alpha [2]: +++
- atrophy rescue, dexamethasone [2]: +++
- atrophy rescue, Myostatin [2]: +++
- % Activity (Human primary myoblasts [3]; [5]): 150%
- % Activity (Human primary myoblasts [3]; [10]): 190%
- Primary screening (% Activity) (Human primary myoblasts [3]; Donor 3, compounds 10 μM, monoplicate (IGF-1 control 100 ng/ml), Myotube fusion index (compound)*100/basal control): 210%
- % Activity (Human primary myoblasts [3]; [6]): 150%
